# Values of other authors in patent US20230201171A1, “COMPOSITIONS AND METHODS FOR PREVENTING POST-ERCP PANCREATITIS” (THE BOARD OF TRUSTEES OF THE LELAND STANFORD JUNIOR …, priority 2020, published 2023).
# System: post-ERCP pancreatitis (PEP)
# Settings: rectal indomethacin alone, current standard of care
structure (smiles),measurement,value
"COc1ccc2c(c1)c(CC(=O)O)c(C)n2C(=O)c1ccc(Cl)cc1 [rectal indomethacin, indomethacin]",effectiveness of PEP prophylaxis,35-40%
